These results are taken from article PMC5349880, “P-glycoprotein-mediated chemoresistance is reversed by carbonic anhydrase XII inhibitors” (Oncotarget, 2016).

Counter-ions that a name gives are not always drawn.

In one data set the test system is Pgp. Kind of data set: Pgp ATPase activity on Pgp-rich vesicles. The format is cell-based. Conditions: for reduction of Pgp ATPase activity: cells grown 24 h with 5 nM compound. As for the experimental part:
Pancadherin level was used as control of equal protein loading. no Ab: A549/DX sample immunoprecipitated without antibody. […] Data are presented as means ± SD (n = 3).
The assay was performed on Pgp-enriched membrane vesicles as detailed in [39]. Verapamil (10 μM) was added to the reaction mix to achieve a maximal activation of the Pgp ATPase activity. Results were expressed as nmol hydrolyzed phosphate (Pi)/min/mg proteins, according to the titration curve previously prepared.

Data set [1] concerns drug-sensitive and drug-resistant cancer cells. Briefly: Cell viability (neutral red), whole panel of cancer cell lines. To be noted: read-out: IC50 of tariquidar alone.
Data set [2] has as its system human CA XII. Kind of data set: CA inhibition, stopped-flow CO2 hydration. Format: biochemical. To be noted: ratio of Kis. As for the experimental part: Saturated CO2 solutions in water at 20°C were used as substrate, while the recombinant CA protein was prepared in Hepes buffer (10 mM, pH 7.5) with added NaClO4 (0.1 M) to maintain a constant the ionic strength. […] The inhibition constants were obtained by nonlinear least-squares methods using PRISM 3. The curve fitting algorithm allowed us to obtain the IC50 values, from which Ki values were calculated by using the Cheng-Prusoff equation.

For a further data set, the target named is human CA I. Set-up: method as in PMID 21851094, PMID 19827837, PMID 21314129. Conditions: recombinant CA, errors ± 5%, three determinations; cited from earlier work.
The target of the next data set is human CA II. Set-up: method as in PMID 21851094, PMID 19827837, PMID 21314129. To be noted: recombinant CA, errors ± 5%, three determinations; cited from earlier work.
The next data set has as its target human CA IX. The arrangement: method as in PMID 21851094, PMID 19827837, PMID 21314129. To be noted: recombinant CA, errors ± 5%, three determinations; cited from earlier work.
Data set [3] addresses human CA XII. Set-up: method as in PMID 21851094, PMID 19827837, PMID 21314129. To be noted: recombinant CA, errors ± 5%, three determinations; cited from earlier work.
The test system of another data set is HT29/DX cells. Kind of data set: Cell viability (neutral red). The format is cell-based, human. Conditions: HT29/DX cells; compound alone, 5 nM.
The test system of the next data set is A549 cells. Kind of data set: Cell viability (neutral red). The format is cell-based, human. To be noted: A549 cells; compound alone, 5 nM.
The next data set concerns A549/DX cells. Kind of data set: Cell viability (neutral red). The format is cell-based, human. To be noted: A549/DX cells; compound alone, 5 nM.
The test system of the next data set is T74D cells. Briefly: Cell viability (neutral red). The format is cell-based, human. To be noted: T74D cells; compound alone, 5 nM.
The next data set deals with MDA-MB-231 cells. Kind of data set: Cell viability (neutral red). The format is cell-based, human. To be noted: MDA-MB-231 cells; compound alone, 5 nM.
Another data set concerns TUBO cells. Kind of data set: Cell viability (neutral red). The format is cell-based, murine. To be noted: TUBO cells; compound alone, 5 nM.
The test system of another data set is JC cells. Kind of data set: Cell viability (neutral red). Format: cell-based, murine. Conditions: JC cells; compound alone, 5 nM.
The test system of the next data set is U2OS/DX cells. Kind of data set: Cell viability (neutral red). Conditions: U2OS/DX cells; compound alone, 5 nM. The format is cell-based, human.
The test system of another data set is SaOS/DX cells. Briefly: Cell viability (neutral red). The format is cell-based, human. Conditions: SaOS/DX cells; compound alone, 5 nM.
Data set [4] concerns CCD-Co-18 cells, BEAS-2B cells, MCF10A cells, fibroblasts. Kind of data set: Cell viability (neutral red) of not-transformed cells. Format: cell-based, human. To be noted: 5 nM, 72 h; no detectable CAXII. The text has this:
Supplementary Figure S4: Effects of compounds 1, 2 and 4 on not-transformed cells. (A) Not-transformed human epithelial colon CCD-Co-18 cells, epithelial lung BEAS-2B cells, epithelial breast MCF10A cells, fibroblasts (fibro) were lysed and immunoblotted for CAXII and CAIX. A549/DX cells were used as control of CAXII- and CAIX-positive cells. β-tubulin level was used as control of equal protein loading. The figure is representative of one out of three experiments with similar results. (B) Cells were grown for 72 h in fresh medium (–), or in medium containing 5 nM compounds 1, 2 and 4, then stained with neutral red dye. The absorbance of viable cells was measured spectrophotometrically. Data are presented as means ± SD (n = 4).

In data set [5] the test system is ca12 KO HT29/DX, A549/DX, MDA-MB-231 and U2OS/DX cells. Kind of data set: Intracellular doxorubicin accumulation in ca12 knocked-out cells. The format is cell-based, human. The protocol: Data are presented as means ± SD (n = 4). […] The absorbance of viable cells was measured spectrophotometrically. Data are presented as means ± SD (n = 4).
Doxorubicin content was measured fluorimetrically as detailed previously by us. […] Cells were washed twice with PBS, detached with trypsin and sonicated. The intracellular drug content was measured by liquid scintillation. The results were expressed as nmol drug/mg cell proteins, according to titration curves previously set.
5 × 10^5 cells were transduced with 1 μg RNA vector (CRISPR pCas guide vector) ca12 or 1 μg not-targeting vector, mixed with 1 μg donor DNA vector (Origene, Rockville, MD), following the manufacturer's instructions. Stable KO cells were selected in complete medium containing 1 μg/ml puromycin for three weeks. Knockout efficacy was evaluated by immunoblotting, as reported above.

For orientation: IC50 means the concentration that inhibits the measured activity by half. On to `COc1cc2c(cc1OC)CN(CCc1ccc(NC(=O)c3cc(OC)c(OC)cc3NC(=O)c3cnc4ccccc4c3)cc1)CC2` [tariquidar, Tariquidar dihydrochloride, reference compound], for which, in the data set on Pgp (tariquidar 25 nM added during the assay), the “effect on Pgp ATPase activity” value is on record as “strongly decreased ATPase activity”. Besides, the IC50 in data set [1] is > 10000 nM.
The Ki is a measure of affinity in units of concentration, obtained from inhibition or displacement. With `NS(=O)(=O)c1ccc(CNS(=O)(=O)[C@@H]2O[C@H](CO)[C@@H](O[C@H]3O[C@H](CO)[C@@H](O)[C@H](O)[C@H]3O)[C@H](O)[C@H]2O)cc1` [Compound 8], the “CAXII Isozyme Selectivity CA I/XII” value in the data set with human CA XII [2] was 12.3. For the same compound, the “CAXII Isozyme Selectivity CA IX/XII” value in the data set with human CA XII [2] is 12.0. Moreover, in the data set with human CA XII [2], the “CAXII Isozyme Selectivity CAII/ XII” value turned out to be 0.6. In addition, the inhibition constant (Ki) on human CA I was 101 nM; at human CA II, 4.8 nM; on human CA IX, 98 nM; on human CA XII [3] it was 8.2 nM.
As for `CCC(=O)OC1O[C@H](COS(N)(=O)=O)[C@@H](OC(=O)CC)[C@H](OC(=O)CC)[C@H]1OC(=O)CC` (stereo partly shown) [Compound 3], the Ki on human CA IX was 77 nM.
As for `NS(=O)(=O)c1ccc(CNS(=O)(=O)[C@@H]2O[C@H](CO)[C@@H](O)[C@H](O)[C@H]2O)cc1` [Compound 5], the results for the Ki at human CA I, on human CA II and on human CA XII [3] were 102 nM, 9.1 nM and 8.3 nM, respectively.
As to `NS(=O)(=O)OC[C@H]1OC(O)[C@H](O)[C@@H](O)[C@@H]1O` (stereo partly shown) [Compound 2], the “reduction in viability for individual compounds” value (“reduction in viability” below) in the data set with HT29/DX cells is reported as ≤ 31 ± 6%; with A549 cells, ≤ 28 ± 10%; in the data set on A549/DX cells, ≤ 38 ± 7%; in the data set with T74D cells, ≤ 33 ± 12%; in the data set with MDA-MB-231 cells, ≤ 36 ± 11%; with TUBO cells, ≤ 28 ± 7%. The “reduction in viability” value in the data set on JC cells was ≤ 30 ± 10%; with U2OS/DX cells it was ≤ 27 ± 8%; in the data set on SaOS/DX cells, ≤ 32 ± 7%. The “cytotoxic effect in not-transformed cells” value in [4] is “did not exert any cytotoxic effect”. Moreover, the “reduction of Pgp ATPase activity” value in the data set on Pgp was ≥ 1.47 fold. Moreover, the “effect on doxorubicin intracellular accumulation” value in data set [5] was “lost the ability to further increase the doxorubicin intracellular accumulation”. Further, at human CA IX, the Ki is 8.6 nM.
On to `NS(=O)(=O)c1ccc(CNS(=O)(=O)[C@@H]2O[C@H](CO)[C@@H](O[C@H]3O[C@H](CO)[C@H](O)[C@H](O)[C@H]3O)[C@H](O)[C@H]2O)cc1` [Compound 7], for which the “CAXII Isozyme Selectivity CA I/XII” value in the data set on human CA XII [2] turned out to be 12.0. Moreover, the “CAXII Isozyme Selectivity CA IX/XII” value in the data set with human CA XII [2] was found to be 11.9. Further, the “CAXII Isozyme Selectivity CAII/ XII” value in the data set on human CA XII [2] was 0.6. Moreover, the inhibitory constant (Ki) on human CA I was 107 nM; on human CA II it was 5 nM; on human CA IX, 106 nM; at human CA XII [3] it was 8.9 nM.
As to `NS(=O)(=O)c1ccc(CNS(=O)(=O)[C@@H]2O[C@H](CO)[C@H](O)[C@H](O)[C@H]2O)cc1` [Compound 6], the inhibition constant (Ki) is 87 nM at human CA I, 7.8 nM at human CA II and 8.7 nM on human CA XII [3].
As for `NS(=O)(=O)OC[C@H]1OC(O)[C@H](O)[C@@H](O)[C@H]1O` (stereo partly shown) [Compound 4], the “reduction in viability” value in the data set with HT29/DX cells is ≤ 31 ± 6%; in the data set on A549 cells it was ≤ 28 ± 10%; in the data set on A549/DX cells, ≤ 38 ± 7%; with T74D cells, ≤ 33 ± 12%; with MDA-MB-231 cells, ≤ 36 ± 11%; in the data set with TUBO cells, ≤ 28 ± 7%. Also, the results for the “reduction in viability” value with JC cells, in the data set with U2OS/DX cells and with SaOS/DX cells were ≤ 30 ± 10%, ≤ 27 ± 8% and ≤ 32 ± 7%, respectively. In addition, the “cytotoxic effect in not-transformed cells” value in [4] is on record as “did not exert any cytotoxic effect”. Moreover, in the data set with Pgp, the “reduction of Pgp ATPase activity” value is reported as ≥ 1.47 fold. In addition, the “effect on doxorubicin intracellular accumulation” value in [5] is listed as “lost the ability to further increase the doxorubicin intracellular accumulation”. For the same compound, the inhibitory constant (Ki) on human CA IX is 62 nM.
